Read-outs that look alike come from different tables or passages of the source. One block for each compound: values may come before it.
Experiments:
leukemia cells = conditions: cumulative doses of up to 3.7 GBq (100 mCi); cited from earlier work
[1] = system: human HL60 leukemia cells; conditions: Bi-213 construct, S.A. 8.4 Ci/g; cited from earlier work
[2] = Stability of 225Ac complexes of simple chelants: yttrium challenge and C-25 column elution
Experimental: Approximately, 200 μCi of ^225Ac solution was mixed with 10 μl of 50 mM of a ligand solution (such as DOTA) and pH was adjusted to about 6-6.5 with 33 μl of 3 M ammonium acetate. The reaction was kept in a water bath at 37° C. for completion in 2 hours. Reaction yield was monitored using 10 mM NaOH/9% NaCl solvent. Then, 10 μl of 77.5 mM Yttrium chloride solution was added to react with excess chelants for 30 minutes. There are two reasons for adding the 1.5 fold excess Yttrium: 1) if ^225Ac complex is not stable, Yttrium will replace ^225Ac c, and 2) Yttrium will react with chelants and make a final solution at metal excess. The excess metal will be held on a C-25 purification column and the radiometal complex can pass through the column. Therefore, the purified solution should contain a 1:1 metal to ligand ratio for the stability studies.
Each reaction solution was purified through a 1 ml C-25 column using a 5 ml of normal saline as eluting buffer. The first 2.5 ml elution was collected for the stability study. The activity in the eluate and the activity retaining on the column were measured using a dose calibrator 20 hours after purification.

[3] = Long-term in vitro stability of 225Ac-DOTA complex in 25% human serum (ITLC); format: in vitro ADME; conditions: 37° C., after 1 month
Experimental: 100% human serum (Sigma Chemical Co., St. Louis, Mo.), 100% mouse serum and 25% human serum albumin (Swiss Red Cross, Bern, Switzerland) was used to determine stability of the ^225 Ac complexes and conjugates. Aliquots in serum are mixed with diethylenetriaminepentaacetic acid (DPTA) (Aldrich Chemical Co., Milwaukee, Wis.). ITLC was utilized with either a 10 mM EDTA or 10 mM NaOH/9% NaCl solvent system and ITLC SG strips (Gelman Science Inc., Ann Arbor, Mich.) to assess the complexation and conjugation efficiency of the chelants. The ITLC strips were analyzed by gas ionization detection with an Ambis 4000 (Ambis, San Diego, Calif.).
Long-term in vitro stability of the ^225Ac-DOTA complex was tested by mixing 100 μl of the purified sample with 900 μl of 25% human serum. The ^225Ac-DOTA and solution was incubated at 37° C. and sampled periodically over the course of 30 days. The samples were analyzed by ITLC.

[4] = Liver accumulation of free 225Ac (acetate) injected into a mouse; format: in vivo
Experimental: In contrast to these two [225Ac]DOTA-IgG constructs, free ^225Ac (acetate) injected into a mouse rapidly accumulates in the liver: 40%, 40%, 65% at 24 h, 48 h, and 120 h, respectively.

[5] = after yttrium addition, C-25 column

Compound: [Bi-213]HuM195: 213Bi alpha-particle emitting HuM195 antibody construct, comparator
tumorocidal activity for leukemia cells (leukemia cells): major tumorocidal activity | LD50 [1]: 200,000 pCi/mL

Compound: O=C([O-])CN1CCN(CC(=O)[O-])CCN(CC(=O)[O-])CCN(CC(=O)[O-])CC1.[225Ac+3] [225Ac-DOTA]
percentage of 225Ac activity eluted from the column ([2]; after […] excess yttrium, 1 ml C-25 column, normal saline, activity measured 20 hours after purification): 98.7% | metal remains complexed [3]: 85%

stability of 225Ac complex (all 225Ac retained on the column) [2]: unstable
Compound: O=C(O)CN(CCN(CC(=O)O)CC(=O)O)CCN(CC(=O)O)CC(=O)O (225Ac complex, metal not drawn) [DTPA]

Compound: O=C(O)CCN1CCCN(CCC(=O)O)CCN(CCC(=O)O)CCCN(CCC(=O)O)CC1 [TETPA]
stability of 225Ac complex (all 225Ac retained on the column) [2, 5]: unstable

Compound: O=C(O)CN1CCCN(CC(=O)O)CCN(CC(=O)O)CCCN(CC(=O)O)CC1 [TETA]
stability of 225Ac complex (all 225Ac retained on the column) [2, 5]: unstable

Compound: O=C(O)CCN1CCN(CCC(=O)O)CCN(CCC(=O)O)CCN(CCC(=O)O)CC1 [DOTPA]
stability of 225Ac complex (all 225Ac retained on the column) [2, 5]: unstable

Compound: CC(=O)[O-].CC(=O)[O-].CC(=O)[O-].[225Ac+3] [free 225Ac (acetate)]
accumulation in the liver ([4]; 24 h): 40% | accumulation in the liver ([4]; 48 h): 40% | accumulation in the liver ([4]; 120 h): 65%

Reference: patent publication US6683162B2, “Targeted alpha particle therapy using actinium-255 conjugates” (Sloan Kettering Institute of Cancer Research, priority 2000, dated 2004)
